Experimental data taken from ChEMBL document CHEMBL1201862, “PubChem BioAssay data set” (2004).
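Values below derive from 48-hour exposures of cells grown in 96-well plates, with endpoints linearly interpolated between the two concentrations bracketing the appropriate inhibition level. Abbreviation: GI50, concentration required for 50% inhibition of growth.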 Active and inactive are the calls of the source. No stated cut-off is given here; in the data, active = GI50 up to about 1.1 µM and inactive = higher.

Legend:
Experiment in all cases: inhibition of tumour cell growth, NCI panel, 48 h
HT-29 = tested on: HT-29
PC-3 = tested on: PC-3
A549 = tested on: A549
NCI-H522 = tested on: NCI-H522
UO-31 = tested on: UO-31
786-0 = tested on: 786-0
NCI-H460 = tested on: NCI-H460
SK-MEL-28 = tested on: SK-MEL-28
ACHN = tested on: ACHN
SF-295 = tested on: SF-295
NCI-H23 = tested on: NCI-H23
RXF 393 = tested on: RXF 393
LOX IMVI = tested on: LOX IMVI
Hs-578T = tested on: Hs-578T
EKVX = tested on: EKVX
U-251 = tested on: U-251
M14 = tested on: M14
BT-549 = tested on: BT-549
SK-MEL-5 = tested on: SK-MEL-5
T47D = tested on: T47D

| SMILES | GI50 (HT-29) | GI50 (PC-3) | GI50 (A549) | GI50 (NCI-H522) | GI50 (UO-31) | GI50 (786-0) | GI50 (NCI-H460) | GI50 (SK-MEL-28) | GI50 (ACHN) | GI50 (SF-295) | GI50 (NCI-H23) | GI50 (RXF 393) | GI50 (LOX IMVI) | GI50 (Hs-578T) | GI50 (EKVX) | GI50 (U-251) | GI50 (M14) | GI50 (BT-549) | GI50 (SK-MEL-5) | GI50 (T47D) |
| --- | --- | --- | --- | --- | --- | --- | --- | --- | --- | --- | --- | --- | --- | --- | --- | --- | --- | --- | --- | --- |
| COc1ccc(OC)c([N+](=O)[O-])c1-c1nc2sc(C)cn2c1/C=N/N=C(N)N | 25.8 µM (inactive) | 23.3 µM (inactive) | 48.6 µM (inactive) | 20 µM (inactive) | > 100 µM (inactive) | 44.3 µM (inactive) | 29.6 µM (inactive) | 21.4 µM (inactive) | 41 µM (inactive) | 24.3 µM (inactive) | 22.8 µM (inactive) | 28.2 µM (inactive) | 70.1 µM (inactive) | 31 µM (inactive) | 82.2 µM (inactive) | 31.6 µM (inactive) | 32.8 µM (inactive) | 15.2 µM (inactive) | 18.7 µM (inactive) |  |
| CC(Cn1c(=O)oc2ccccc21)N(C)C (stereo not drawn) | > 100 µM (inactive) | > 100 µM (inactive) |  |  |  | > 100 µM (inactive) | > 100 µM (inactive) | > 100 µM (inactive) | > 100 µM (inactive) | > 100 µM (inactive) | > 100 µM (inactive) | > 100 µM (inactive) | > 100 µM (inactive) | > 100 µM (inactive) | > 100 µM (inactive) | > 100 µM (inactive) | > 100 µM (inactive) | > 100 µM (inactive) | > 100 µM (inactive) |  |
| OCCN(C1=NCCN1)/[N+](=C/c1ccc(Cl)cc1)[CH-]c1ccc(Cl)cc1 | 94.8 µM (inactive) | 62.5 µM (inactive) | > 100 µM (inactive) | 84.3 µM (inactive) | > 100 µM (inactive) | > 100 µM (inactive) | > 100 µM (inactive) | > 100 µM (inactive) | > 100 µM (inactive) | > 100 µM (inactive) | > 100 µM (inactive) | 15.5 µM (inactive) | 51.6 µM (inactive) | > 100 µM (inactive) | > 100 µM (inactive) | > 100 µM (inactive) | 83.9 µM (inactive) | > 100 µM (inactive) | 23.8 µM (inactive) |  |
| Cc1cc(C)n(C(C)(C(=O)Cc2ccccc2)n2nc(C)cc2C)n1 | > 100 µM (inactive) | > 100 µM (inactive) | > 100 µM (inactive) | > 100 µM (inactive) | > 100 µM (inactive) | > 100 µM (inactive) | > 100 µM (inactive) | > 100 µM (inactive) | > 100 µM (inactive) | > 100 µM (inactive) | > 100 µM (inactive) | > 100 µM (inactive) | > 100 µM (inactive) | > 100 µM (inactive) | > 100 µM (inactive) | > 100 µM (inactive) | > 100 µM (inactive) |  | > 100 µM (inactive) | > 100 µM (inactive) |
| Cc1[nH]c2ccccc2c1C1=CC(=O)N(c2ccccc2)C1=O | 5.58 µM (inactive) | 11.9 µM (inactive) | 22.5 µM (inactive) |  | 19 µM (inactive) | 10.8 µM (inactive) | 14.6 µM (inactive) | 6.46 µM (inactive) | 23.2 µM (inactive) | 26.7 µM (inactive) | 12.1 µM (inactive) | 6.67 µM (inactive) | 5.55 µM (inactive) | 8.22 µM (inactive) | 16.8 µM (inactive) | 17.3 µM (inactive) | 13.6 µM (inactive) | 5.31 µM (inactive) | 8 µM (inactive) |  |
| CCCCCCCCCCCCC(=O)OC(c1cnco1)c1nc(C(O)CC(O)C(O)C(C)O)co1 (stereo not drawn) | 0.351 µM (active) | 2.22 µM (inactive) | 0.264 µM (active) | 0.787 µM (active) | 8.97 µM (inactive) | 0.217 µM (active) | < 0.039 µM (active) | 0.5 µM (active) | 1.45 µM (inactive) | 0.467 µM (active) | 0.336 µM (active) | 1.38 µM (inactive) | 0.144 µM (active) | 1.53 µM (inactive) | 11.8 µM (inactive) | 0.129 µM (active) | 0.491 µM (active) |  | 0.719 µM (active) | 4.71 µM (inactive) |
| CN(C)c1ccc(/C=N/NC(=O)c2cnc3ccccc3c2)cc1 |  | > 100 µM (inactive) | > 100 µM (inactive) | 18.1 µM (inactive) | > 100 µM (inactive) | 78.5 µM (inactive) | > 100 µM (inactive) | > 100 µM (inactive) | > 100 µM (inactive) | 71.4 µM (inactive) | > 100 µM (inactive) | 19.9 µM (inactive) | > 100 µM (inactive) | 25.5 µM (inactive) | 58.6 µM (inactive) | 38.7 µM (inactive) | > 100 µM (inactive) | 94 µM (inactive) | > 100 µM (inactive) |  |
| CN1CCN(/C(N)=C(\C#N)C(=O)Nc2ccccc2)CC1 |  | > 100 µM (inactive) | > 100 µM (inactive) |  | > 100 µM (inactive) | > 100 µM (inactive) | > 100 µM (inactive) | > 100 µM (inactive) | > 100 µM (inactive) | > 100 µM (inactive) | > 100 µM (inactive) |  | > 100 µM (inactive) |  | > 100 µM (inactive) | > 100 µM (inactive) | > 100 µM (inactive) | > 100 µM (inactive) | > 100 µM (inactive) | > 100 µM (inactive) |
| CC(C)(C)CC(C)(C)NC(=S)NO | > 100 µM (inactive) | > 100 µM (inactive) | > 100 µM (inactive) | > 100 µM (inactive) | > 100 µM (inactive) | > 100 µM (inactive) | > 100 µM (inactive) | > 100 µM (inactive) | > 100 µM (inactive) | > 100 µM (inactive) | > 100 µM (inactive) | > 100 µM (inactive) | > 100 µM (inactive) | > 100 µM (inactive) | > 100 µM (inactive) |  | > 100 µM (inactive) |  | > 100 µM (inactive) | > 100 µM (inactive) |
| OCC1C2CCC3(OCCO3)C12 (stereo not drawn) | > 100 µM (inactive) | > 100 µM (inactive) | > 100 µM (inactive) | > 100 µM (inactive) | 15.4 µM (inactive) | > 100 µM (inactive) | > 100 µM (inactive) | > 100 µM (inactive) | > 100 µM (inactive) | > 100 µM (inactive) | 18.2 µM (inactive) | > 100 µM (inactive) | > 100 µM (inactive) |  | > 100 µM (inactive) | > 100 µM (inactive) | > 100 µM (inactive) | 20.6 µM (inactive) | > 100 µM (inactive) |  |
| COC(=O)C1CCC(=O)N1C(c1ccccc1)c1cc(OC)c(OC)c(OC)c1 (stereo not drawn) | 29.4 µM (inactive) | 51.3 µM (inactive) | 54.2 µM (inactive) | 40.2 µM (inactive) | 55.1 µM (inactive) | > 100 µM (inactive) | 43 µM (inactive) | 99.8 µM (inactive) | > 100 µM (inactive) | 38.9 µM (inactive) | 62.4 µM (inactive) | > 100 µM (inactive) | 56.2 µM (inactive) |  | 91 µM (inactive) | 80.4 µM (inactive) | 43 µM (inactive) | 92.7 µM (inactive) |  | 55.8 µM (inactive) |
